Laboratory results reported in patent publication US7001887B2, “Peptide derivatives” (priority 2001, dated 2006).
Like-named read-outs stand apart in the source and are kept apart here.

What was measured:
human factor VIIa = human factor VIIa (Homo sapiens, UniProt P08709); test: biochemical
Experimental: 1. Assay for FVIIa-inhibiting Activity
A 10 vol % DMSO solution of a test compound (20 μL) was mixed with 40 μL Thromborel®S (50 mg/mL, Dade Behring, GTS-200A), 20 μL Spectrozyme®fVIIa (5 mmol/L, American Diagnostica Inc., #217L), 20 μL Tris buffer (500 mmol/L Tris/HCl, pH 7.5, 1500 mmol/L NaCl, 50 mmol/L CaCl2) and 80 μL distilled water, followed by stirring. […] The initial reaction velocity was set to 100% in the case of adding 10 vol % DMSO alone, instead of a test compound. […] This concentration was defined as an IC50 value.

human thrombin = molecular target: T1, human thrombin (Homo sapiens, UniProt P00734); test: Assay for thrombin-inhibiting activity (chromogenic substrate FVR-pNa); type: biochemical; settings: for Thrombin selectivity: ratio IC50 Thrombin / IC50 Factor VIIa
T1 construct: addition of 20 μ2L human thrombin (5 U/mL, SIGMA, T 1063); purchased SIGMA T 1063

[1] = 50% inhibition of initial reaction velocity, room temperature, absorbance at 405 nm, read-out: IC50 Thrombin

Chain of human factor VIIa (P08709 213-466 limits assumed): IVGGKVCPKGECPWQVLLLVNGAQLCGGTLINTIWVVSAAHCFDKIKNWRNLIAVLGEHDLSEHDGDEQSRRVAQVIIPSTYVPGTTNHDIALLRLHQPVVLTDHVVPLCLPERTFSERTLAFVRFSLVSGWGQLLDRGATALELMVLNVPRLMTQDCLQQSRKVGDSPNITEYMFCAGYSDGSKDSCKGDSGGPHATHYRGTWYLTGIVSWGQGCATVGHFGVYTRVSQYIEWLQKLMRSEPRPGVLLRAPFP
Chain of human factor VIIa (P08709 61-212 limits assumed): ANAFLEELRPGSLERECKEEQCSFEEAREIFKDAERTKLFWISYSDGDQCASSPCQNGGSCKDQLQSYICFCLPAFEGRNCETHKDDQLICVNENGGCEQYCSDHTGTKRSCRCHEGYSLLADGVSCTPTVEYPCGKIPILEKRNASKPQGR
Chain of human factor VIIa (P13726 33-295 partner): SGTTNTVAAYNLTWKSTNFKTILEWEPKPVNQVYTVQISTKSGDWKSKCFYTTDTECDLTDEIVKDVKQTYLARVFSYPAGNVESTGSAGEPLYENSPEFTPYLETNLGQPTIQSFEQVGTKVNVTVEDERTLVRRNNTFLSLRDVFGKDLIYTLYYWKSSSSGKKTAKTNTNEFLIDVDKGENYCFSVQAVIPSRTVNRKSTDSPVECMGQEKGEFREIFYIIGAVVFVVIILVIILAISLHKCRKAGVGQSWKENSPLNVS

SMILES | IC50 (human factor VIIa) [nM] | IC50 (human thrombin; [1]) [nM] | Thrombin selectivity (human thrombin) | IC50 (human thrombin) [nM]
CCS(=O)(=O)N[C@H](Cc1c[nH]c2ccccc12)C(=O)N[C@@H](CCC(N)=O)C(=O)NCc1ccc(C(=N)N)cc1 [Example 5, N-(Ethylsulfonyl)-D-tryptophyl-N^1-(4-amidinobenzyl)-L-glutamide] | 62 | 5880 | 95 | –
N=C(N)c1ccc(CNC(=O)[C@H](CCC(N)=O)NC(=O)[C@@H](Cc2c[nH]c3ccccc23)NS(=O)(=O)Cc2cccc(C(=O)O)c2)cc1 [Example 7] | 37 | 17900 | 483 | –
CCS(=O)(=O)N[C@H](Cc1c[nH]c2ccc(OCc3cccc(C(=O)O)c3)cc12)C(=O)N[C@@H](CCC(N)=O)C(=O)NCc1ccc(C(=N)N)cc1 [Example 22, 5-[(3-Carboxybenzyl)oxy]-N-(ethylsulfonyl)-D-tryptophyl-N^1-{4-[amino(imino)methyl]benzyl}-L-glutamide] | 39 | 17500 | – | –
CCS(=O)(=O)N[C@H](Cc1ccc(-c2ccccc2)cc1)C(=O)N[C@@H](CCC(N)=O)C(=O)NCc1ccc(C(=N)N)cc1 [Example 65] | – | 9420 | – | –
N=C(N)c1ccc(CNC(=O)[C@H](CCC(N)=O)NC(=O)[C@H](N)Cc2ccc(-c3ccccc3)cc2)cc1 [Example 66] | 2940 | 59100 | 20 | –
CCS(=O)(=O)N[C@H](Cc1ccc(-c2ccccc2)cc1)C(=O)N[C@@H](CCSC)C(=O)NCc1ccc(C(=N)N)cc1 [Example 67] | 341 | – | 1 | 2280
CCS(=O)(=O)N[C@H](Cc1ccc(OC)cc1)C(=O)N[C@@H](CCC(N)=O)C(=O)NCc1ccc(C(=N)N)cc1 [Example 73] | 81 | 397 | 5 | –
CCS(=O)(=O)N[C@H](Cc1ccc(C(=O)c2ccccc2)cc1)C(=O)N[C@@H](CCC(N)=O)C(=O)NCc1ccc(C(=N)N)cc1 [Example 81] | 177 | 5690 | – | –
CCS(=O)(=O)N[C@H](Cc1c[nH]c2ccc(C)cc12)C(=O)N[C@@H](CCC(N)=O)C(=O)NCc1ccc(C(=N)N)cc1 [Example 82] | 131 | 12500 | – | –
CCCOc1ccc2[nH]cc(C[C@@H](NS(=O)(=O)CC)C(=O)N[C@@H](CCC(N)=O)C(=O)NCc3ccc(C(=N)N)cc3)c2c1 [Example 83] | 55 | 14400 | – | –
N=C(N)c1ccc(CNC(=O)[C@H](CCC(N)=O)NC(=O)[C@@H](Cc2c[nH]c3ccccc23)NS(=O)(=O)CC(=O)O)cc1 [Example 146] | 153 | 80200 | 524 | –
CCS(=O)(=O)N[C@H](Cc1c[nH]c2ccc(OC)cc12)C(=O)N[C@@H](CCC(N)=O)C(=O)NCc1ccc(C(=N)N)cc1 [Example 148] | 65 | 8330 | – | –
CCS(=O)(=O)N[C@H](Cc1c[nH]c2ccc(OCc3ccccc3)cc12)C(=O)N[C@@H](CCC(N)=O)C(=O)NCc1ccc(C(=N)N)cc1 [Example 170] | 37 | 9420 | – | –
